Measurements published in article PMC2760403 (The Journal of organic chemistry, 2009).

Key:
Type in all cases: biochemical
[1] = molecular target: M. tuberculosis Riboflavin Synthase (Mycobacterium tuberculosis, UniProt P9WK35); test: Riboflavin synthase kinetic inhibition assay; settings: recombinant M. tuberculosis RS; for kcat (rate constant ES → E + P): fit of the compound's data set; for kcat (rate constant ES → E + P) / Kis (inhibitor dissociation constant, ES + I ⇌ ESI): pH 7.0
[2] = molecular target: T1, S. pombe Lumazine Synthase (Schizosaccharomyces pombe, UniProt Q9UUB1); test: Lumazine synthase kinetic inhibition assay; settings: recombinant S. pombe LS; for kcat (rate constant ES → E + P): fit of the compound's data set; for kcat (rate constant ES → E + P) / Kis (inhibitor dissociation constant, ES + I ⇌ ESI): pH 7.0; for Kis (inhibitor dissociation constant, ES + I ⇌ ESI): substrate 1 varied, 2 constant
T1 sequence (Q9UUB1 1-159): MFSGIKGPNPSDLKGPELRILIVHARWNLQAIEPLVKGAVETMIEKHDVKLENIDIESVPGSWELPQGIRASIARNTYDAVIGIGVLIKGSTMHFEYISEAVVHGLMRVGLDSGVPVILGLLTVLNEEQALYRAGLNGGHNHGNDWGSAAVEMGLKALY

[3] = molecular target: M. tuberculosis Lumazine Synthase (Mycobacterium tuberculosis, UniProt P9WHE9); settings: recombinant M. tuberculosis LS; for kcat (rate constant ES → E + P): fit of the compound's data set; for kcat (rate constant ES → E + P) / Kis (inhibitor dissociation constant, ES + I ⇌ ESI): pH 7.0; for Kis (inhibitor dissociation constant, ES + I ⇌ ESI): substrate 1 varied, 2 constant
[4] = molecular target: E. coli Riboflavin Synthase (Escherichia coli, UniProt P0AFU8); test: Riboflavin synthase kinetic inhibition assay; settings: recombinant E. coli RS; for kcat (rate constant ES → E + P): fit of the compound's data set; for kcat (rate constant ES → E + P) / Kis (inhibitor dissociation constant, ES + I ⇌ ESI): pH 7.0
Sequence of E. coli Riboflavin Synthase (P0AFU8 whole entry): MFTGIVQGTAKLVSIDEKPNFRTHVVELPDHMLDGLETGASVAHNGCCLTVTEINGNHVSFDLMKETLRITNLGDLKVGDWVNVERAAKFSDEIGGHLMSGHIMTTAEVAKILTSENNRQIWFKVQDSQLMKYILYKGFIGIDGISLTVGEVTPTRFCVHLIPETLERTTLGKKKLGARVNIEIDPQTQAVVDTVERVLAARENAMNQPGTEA

Sequence of M. tuberculosis Riboflavin Synthase (P9WK35 whole entry): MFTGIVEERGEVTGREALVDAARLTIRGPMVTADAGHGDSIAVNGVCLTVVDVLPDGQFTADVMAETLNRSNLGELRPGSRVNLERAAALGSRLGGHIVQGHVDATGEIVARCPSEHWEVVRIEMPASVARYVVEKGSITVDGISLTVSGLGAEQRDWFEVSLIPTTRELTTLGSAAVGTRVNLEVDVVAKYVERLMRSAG
Sequence of M. tuberculosis Lumazine Synthase (P9WHE9 whole entry): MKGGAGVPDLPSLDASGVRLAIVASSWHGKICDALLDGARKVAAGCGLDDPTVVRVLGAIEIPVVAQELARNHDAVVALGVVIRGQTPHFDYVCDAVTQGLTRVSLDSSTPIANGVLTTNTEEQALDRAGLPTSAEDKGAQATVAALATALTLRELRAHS

SMILES	Mode of inhibition [1]	kcat (rate constant ES → E + P) [1]	Kis (inhibitor dissociation constant, ES + I ⇌ ESI) [1]	Mode of inhibition [2]	kcat (rate constant ES → E + P) [2]	Mode of inhibition [3]	kcat (rate constant ES → E + P) [3]	Mode of inhibition [4]	kcat (rate constant ES → E + P) [4]	Kis (inhibitor dissociation constant, ES + I ⇌ ESI) [4]	Kis (inhibitor dissociation constant, ES + I ⇌ ESI) [2]	Kis (inhibitor dissociation constant, ES + I ⇌ ESI) [3]	Inhibitory activity in words [4]	Inhibitory activity in words [2]
O=c1[nH]c(/C=C/c2ccccc2O)c([N+](=O)[O-])c(=O)[nH]1 [Compound 9, (E)-5-Nitro-6-(2-hydroxystyryl)pyrimidine-2,4(1H,3H)-dione]	Uncompetitive	0.0683 ± 0.0033 s⁻¹	917 ± 212 µM	Competitive	0.023 ± 0.0005 s⁻¹	Competitive	0.00433 ± 0.00017 s⁻¹							
O=c1[nH]c(/C=C/c2cccc(O)c2O)c([N+](=O)[O-])c(=O)[nH]1 [Compound 17, (E)-6-(2,3-Dihydroxystyryl)-5-nitropyrimidine-2,4(1H,3H)-dione]	Partial	0.0045 ± 0.00033 s⁻¹	37 ± 16 µM	Partial	0.0262 ± 0.00033 s⁻¹	Mixed	0.006 ± 0.00017 s⁻¹	Mixed	0.085 ± 0.0017 s⁻¹	26 ± 4 µM	16 ± 3 µM	81 ± 29 µM		
O=c1[nH]c(CCc2ccc(O)cc2)c([N+](=O)[O-])c(=O)[nH]1 [Compound 48, 6-(4-Hydroxy-2-phenethyl)-5-nitropyrimidine-2,4(1H,3H)-dione]	Uncompetitive	0.00567 ± 0.00017 s⁻¹	449 ± 45 µM											
O=c1[nH]c(/C=C/c2cc(O)ccc2O)c([N+](=O)[O-])c(=O)[nH]1 [Compound 18, (E)-6-(2,5-Dihydroxystyryl)-5-nitropyrimidine-2,4(1H,3H)-dione]	Uncompetitive	0.00367 ± 0.00033 s⁻¹	398 ± 156 µM	Uncompetitive	0.0245 ± 0.00067 s⁻¹	Uncompetitive	0.00283 ± 0.00017 s⁻¹	Uncompetitive	0.085 ± 0.0017 s⁻¹	122 ± 10 µM	53 ± 5 µM	420 ± 168 µM		
O=c1[nH]c(/C=C/c2cccc(O)c2)c([N+](=O)[O-])c(=O)[nH]1 [Compound 15, (E)-6-(3-Hydroxystyryl)-5-nitropyrimidine-2,4(1H,3H)-dione]						Competitive	0.00383 ± 0.00017 s⁻¹						completely ineffective	completely ineffective
O=c1[nH]c(/C=C/c2cc([N+](=O)[O-])ccc2O)c([N+](=O)[O-])c(=O)[nH]1 [Compound 32, (E)-6-(2-Hydroxy-5-nitrostyryl)-5-nitropyrimidine-2,4(1H,3H)-dione]	Uncompetitive	0.00783 ± 0.00017 s⁻¹	800 ± 107 µM			Competitive	0.0107 ± 0.0005 s⁻¹							
O=c1[nH]c(/C=C/c2ccc(F)cc2)c([N+](=O)[O-])c(=O)[nH]1 [Compound 29, (E)-6-(4-Fluorostyryl)-5-nitropyrimidine-2,4(1H,3H)-dione]	Mixed	0.00667 ± 0.00017 s⁻¹	776 ± 294 µM			Mixed	0.0065 ± 0.00033 s⁻¹					25 ± 8 µM		
O=c1[nH]c(/C=C/c2ccc([N+](=O)[O-])c(O)c2)c([N+](=O)[O-])c(=O)[nH]1 [Compound 35, (E)-6-(3-Hydroxy-4-nitrostyryl)-5-nitropyrimidine-2,4(1H,3H)-dione]				Mixed	0.0188 ± 0.00017 s⁻¹	Competitive	0.00633 ± 0.00017 s⁻¹	Uncompetitive	0.0717 ± 0.0017 s⁻¹	224 ± 22 µM	497 ± 159 µM			
